Consider one molecule from patent US6355430B1, “Diagnostic and screening methods employing KIAA0101” (Millennium Pharmaceuticals, Inc., priority 1998, dated 2002).

This assay concerns KIAA0101 expression in LNCaP cells. In words: Expression of KIAA0101 in LNCaP prostate cancer cells treated with casodex. The class given is cell-based, human. On the procedure:
In order to examine the effect of casodex, an anti-androgen, on the expression of KIAA0101, LNCaP cells (androgen-sensitive prostate cancer cells) were grown to 70% confluence in RPMI-1640 (10% FBS). The cultures were then pretreated for 24 hours in dye-free RPMI-1640 containing 5% charcoal stripped serum. The cultures were then treated with either 1 nM R1881 or 100 […] casodex in RPMI-1640 containing 5% charcoal stripped serum prior to harvesting and extraction of total mRNA for expression analysis.

Molecules are shown by their SMILES.

Consider `CC(O)(CS(=O)(=O)c1ccc(F)cc1)C(=O)Nc1ccc(C#N)c(C(F)(F)F)c1` (centres unmarked) [casodex], for which, for the setting “LNCaP cells (androgen-responsive prostate cancer cell line), in the presence of casodex”, the “decrease (drop) in KIAA0101 expression” value came to 3 fold. Moreover, where the note is “LNCaP cells, casodex versus R1881 (androgen agonist, 1 nM)”, the “KIAA0101 expression lower in the presence of casodex than in the presence of R1881” value came to 3 fold.
